Data set [1] has as its system Leishmania infantum. Kind of data set: Antileishmanial activity against promastigote form of Leishmania infantum assessed as inhibition of parasite growth. Type of data set: functional, organism-based.
Data set [2] can be described thus: Cytotoxicity against human erythrocytes. Type of data set: cell-based, Erythrocyte.
Data set [3] in a line: Inhibition of Leishmania Trypanothione reductase.
Data set [4] can be described thus: Inhibition of Leishmania donovani Topoisomerase 1.
Data set [5] relates to Leishmania infantum. Kind of data set: Antileishmanial activity against axenic amastigote stage of Leishmania infantum assessed as reduction in parasite growth. The format is functional, organism-based.
Data set [6] is described as follows: Cytotoxicity against PBMC (unknown origin).
For data set [7], the system named is Leishmania infantum. The experiment in a line: Antileishmanial activity against axenic amastigote stage of Leishmania infantum assessed as reduction in parasite growth at 6.25 to 12.5 ug/ml. Type of data set: functional. Particulars: dose 6.25-12.5 µg/ml; at 6.25 to 12.5 µg/mL.
The nature of data set [8]: Selectivity index, ratio of CC50 for PBMC (unknown origin) to EC50 for anti-leishmanial activity against axenic amastigote stage of Leishmania infantum. The format is toxicity. Conditions: read-out: Ratio CC50/EC50.
The subject of data set [9] is Leishmania infantum. The experiment in a line: Antileishmanial activity against axenic amastigote stage of Leishmania infantum assessed as reduction in parasite growth at 0.7812 ug/ml. Type of data set: functional.

≈ marks a conversion by molar mass, not a printed value.

The term IC50 denotes the midpoint of a concentration-inhibition curve. As a reminder, the HC50 is the concentration giving 50% haemolysis. Low readings indicate more damage to red cells, high ones less damage to red cells. In general, EC50 refers to the midpoint of the concentration-response curve. What is called CC50 is the concentration at which the toxic effect on the cells reaches its halfway point. Read a low CC50 as greater toxicity to the cells. As a reminder, the inhibition is the percentage by which the read-out fell short of the control.

On to `N#CC1=CC2(c3ccccc3Nc3ccccc32)N(/N=C\c2c(Cl)cccc2Cl)C1=O`, for which, in data set [1], the IC50 amounted to 2.63 mg/L (≈ 5.91 µM). This compound also came in with an HC50 in [2] greater than 400 µg/mL.

In data set [3], `CCN(CC)CCCC(C)Nc1c2ccc(Cl)cc2nc2ccc(OC)cc12` (stereo unspecified) [QUINACRINE] yielded an IC50 of 19 µM.

As for `N#CC1=CC2(c3ccccc3Nc3ccccc32)N(/N=C\c2ccc([N+](=O)[O-])cc2)C1=O`, the IC50 in [1] came out at 5.33 mg/L (≈ 12.7 µM). In addition, the HC50 in [2] was greater than 400 µg/mL.

Turning to `N#CC1=CC2(c3ccccc3Nc3ccccc32)N(/N=C\c2ccc(Cl)cc2)C1=O`, in [1], the IC50 is 5.68 mg/L (≈ 13.8 µM). In data set [2], this compound displayed an HC50 greater than 400 µg/mL.

Consider `CC[C@@]1(O)C(=O)OCc2c1cc1n(c2=O)Cc2cc3ccccc3nc2-1` [CAMPTOTHECIN], for which the response in data set [4] was half-maximal at 0.7 µM (EC50).

On to `OCCN1CCN(CCCN2c3ccccc3Sc3ccc(Cl)cc32)CC1` [PERPHENAZINE], for which, in [3], the IC50 came out at 4.88 µM.

Consider `CN(C)c1ccc(/C=N\N2C(=O)C(C#N)=CC23c2ccccc2Nc2ccccc23)cc1`, for which the IC50 in data set [1] is 1.11 mg/L (≈ 2.64 µM). In addition, the EC50 in [5] came out at 0.974 mg/L (≈ 2.32 µM). The compound further came in with a CC50 in [6] greater than 100 mg/L. For the same compound, the “inhibition (INH)” value in data set [7] was found to be 65%. For the same compound, the selectivity ratio in [8] is greater than 103. Besides, the HC50 in data set [2] is greater than 400 µg/mL. In data set [9], the inhibition at 0.7812 µg/mL was 33.2%.

As to `N#CC1=CC2(c3ccccc3Nc3ccccc32)N(/N=C\c2ccc(F)cc2)C1=O`, the IC50 in [1] was found to be 4.11 mg/L (≈ 10.4 µM). Moreover, in data set [2], the HC50 is greater than 400 µg/mL.

`N#CC1=CC2(c3ccccc3Nc3ccccc32)N(/N=C\c2ccc(Cl)cc2Cl)C1=O`: the IC50 in [1] worked out at 3.89 mg/L (≈ 8.74 µM). The same compound had an HC50 in data set [2] greater than 400 µg/mL.

`C[C@@H]1[C@H](O)[C@@H](C)/C=C/C=C/C=C/C=C/C=C/C=C/C=C/[C@H](O[C@@H]2O[C@H](C)[C@@H](O)[C@H](N)[C@@H]2O)C[C@@H]2O[C@](O)(C[C@@H](O)C[C@@H](O)[C@H](O)CC[C@@H](O)C[C@@H](O)CC(=O)O[C@H]1C)C[C@H](O)[C@H]2C(=O)O` [AMPHOTERICIN B]: the IC50 in [1] is 0.9 mg/L (≈ 0.974 µM). For the same compound, the EC50 in data set [5] amounted to 1.6 mg/L (≈ 1.73 µM). The CC50 in data set [6] was determined as 7.63 mg/L (≈ 8.26 µM). For the same compound, the selectivity ratio in data set [8] is 4.78.

As for `N#CC1=CC2(c3ccccc3Nc3ccccc32)N(/N=C\c2ccccc2[N+](=O)[O-])C1=O`, the IC50 in data set [1] stood at 3.78 mg/L (≈ 8.97 µM). In data set [2], this compound had an HC50 greater than 400 µg/mL.

`CN(C)CCCN1c2ccccc2CCc2ccc(Cl)cc21` [CLOMIPRAMINE] gave an IC50 in data set [3] of 3.8 µM.

In the case of `CCOc1cc(/C=N\N2C(=O)C(C#N)=CC23c2ccccc2Nc2ccccc23)ccc1O`, in data set [1], the half-inhibitory concentration (IC50) was determined as 6.06 mg/L (≈ 13.9 µM). In data set [2], this compound gave an HC50 greater than 400 µg/mL.

Consider `N#CC1=CC2(c3ccccc3Nc3ccccc32)N(/N=C\c2ccccc2)C1=O`, for which, in data set [1], the IC50 turned out to be 2.04 mg/L (≈ 5.42 µM). Also, the EC50 in data set [5] was determined as 4.96 mg/L (≈ 13.2 µM). In [6], this compound showed a CC50 of 44.2 mg/L (≈ 117 µM). The “inhibition (INH)” value in data set [7] was 65%. Also, the selectivity ratio in data set [8] turned out to be 8.9. This compound showed an HC50 in [2] greater than 400 µg/mL. The inhibition at 0.7812 µg/mL in data set [9] was 21.7%.

Values taken from ChEMBL document CHEMBL4823298, “In vitro anti-Leishmania activity and molecular docking of spiro-acridine compounds as potential multitarget agents against Leishmania infantum” (Bioorg Med Chem Lett, 2021).
